The text below walks through data of ChEMBL document CHEMBL5104196, “Discovery of Novel, Potent, and Selective Small-Molecule Menin-Mixed Lineage Leukemia Interaction Inhibitors through Attempting Introduction of Hydrophilic Groups” (J Med Chem, 2022).

SMILES strings stand for the structures. Converted amounts (≈) assume the structure as drawn. The source made the active and inactive calls. The rule behind the calls is not given here.

Data set [1] in a line: Solubility of compound in phosphate buffer at pH 7.4 by spectrophotometric analysis. The class given is physicochemical.
Data set [2] has as its system MV4-11. Description: Induction of apoptosis in human MV4-11 cells incubated for 24 hrs by annexinV/PI staining based flow cytometry analysis. It is filed as functional, cell-based. The note with it: dose 0.1-10 µM, DDE = dose-dependent effect. For orientation: In flow cytometry, cells or beads pass a laser one at a time.
A short description of data set [3]: Metabolic stability in CD-1 mouse liver microsome assessed as half life measured upto 60 min by UPLC-MS/MS analysis. It is filed as ADME. The settings on record: liver microsomes.
Data set [4] in a line: Metabolic stability in human liver microsome assessed as half life measured upto 60 min by UPLC-MS/MS analysis. The class given is ADME. The note with it: liver microsomes. On the technique in general: Microsomes from liver hold many membrane-bound enzymes, among them those of drug oxidation.
The subject of data set [5] is MV4-11. Description: Induction of cell differentiation in human MV4-11 cells assessed as increase in CD11b expression at 10 uM measured after 7 days by flow cytometric analysis. It is filed as functional, cell-based. The settings on record: time 7.0 day.
Data set [6] can be described thus: Metabolic stability in Sprague-Dawley rat liver assessed as intrinsic clearance measured upto 60 min by UPLC-MS/MS analysis. It is filed as ADME, tissue-based. The note with it: read-out: CLH.
The nature of data set [7]: Volume of distribution at steady state in Sprague-Dawley rat at 15 mg/kg, po. It is filed as ADME, organism-based. The note with it: in vivo.
Data set [8] in a line: Metabolic stability in human liver microsome assessed as compound remaining measured after 60 min by UPLC-MS/MS analysis. The class given is ADME. The settings on record: liver microsomes, read-out: Stability.
For data set [9], the target named is Menin/Histone-lysine N-methyltransferase MLL (Homo sapiens, UniProt O00255). Kind of data set: Inhibition of Menin/fluorescein labeled MLL(4 to 43 residues) (unknown origin) protein protein interaction incubated for 1 hr by fluorescence polarization-based competitive binding assay.
Chain of Menin/Histone-lysine N-methyltransferase MLL (O00255 whole entry, the tested form may be a part): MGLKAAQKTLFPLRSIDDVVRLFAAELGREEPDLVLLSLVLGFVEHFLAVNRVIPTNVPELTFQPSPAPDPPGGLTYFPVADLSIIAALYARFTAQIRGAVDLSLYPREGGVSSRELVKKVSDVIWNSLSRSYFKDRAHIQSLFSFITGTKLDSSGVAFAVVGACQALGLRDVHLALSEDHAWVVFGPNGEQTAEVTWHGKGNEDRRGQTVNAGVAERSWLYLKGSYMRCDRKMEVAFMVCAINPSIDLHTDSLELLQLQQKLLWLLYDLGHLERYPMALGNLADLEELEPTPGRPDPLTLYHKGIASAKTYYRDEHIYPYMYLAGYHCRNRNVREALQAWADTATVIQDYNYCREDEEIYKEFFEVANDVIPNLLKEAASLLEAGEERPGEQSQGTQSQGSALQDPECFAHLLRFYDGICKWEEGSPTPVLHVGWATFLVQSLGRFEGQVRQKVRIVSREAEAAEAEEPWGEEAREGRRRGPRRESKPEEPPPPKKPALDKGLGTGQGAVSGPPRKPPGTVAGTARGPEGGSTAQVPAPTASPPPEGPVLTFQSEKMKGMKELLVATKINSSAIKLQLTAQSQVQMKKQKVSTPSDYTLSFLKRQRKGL
Chain of Menin/Histone-lysine N-methyltransferase MLL (Q03164 1-2718 partner limits assumed): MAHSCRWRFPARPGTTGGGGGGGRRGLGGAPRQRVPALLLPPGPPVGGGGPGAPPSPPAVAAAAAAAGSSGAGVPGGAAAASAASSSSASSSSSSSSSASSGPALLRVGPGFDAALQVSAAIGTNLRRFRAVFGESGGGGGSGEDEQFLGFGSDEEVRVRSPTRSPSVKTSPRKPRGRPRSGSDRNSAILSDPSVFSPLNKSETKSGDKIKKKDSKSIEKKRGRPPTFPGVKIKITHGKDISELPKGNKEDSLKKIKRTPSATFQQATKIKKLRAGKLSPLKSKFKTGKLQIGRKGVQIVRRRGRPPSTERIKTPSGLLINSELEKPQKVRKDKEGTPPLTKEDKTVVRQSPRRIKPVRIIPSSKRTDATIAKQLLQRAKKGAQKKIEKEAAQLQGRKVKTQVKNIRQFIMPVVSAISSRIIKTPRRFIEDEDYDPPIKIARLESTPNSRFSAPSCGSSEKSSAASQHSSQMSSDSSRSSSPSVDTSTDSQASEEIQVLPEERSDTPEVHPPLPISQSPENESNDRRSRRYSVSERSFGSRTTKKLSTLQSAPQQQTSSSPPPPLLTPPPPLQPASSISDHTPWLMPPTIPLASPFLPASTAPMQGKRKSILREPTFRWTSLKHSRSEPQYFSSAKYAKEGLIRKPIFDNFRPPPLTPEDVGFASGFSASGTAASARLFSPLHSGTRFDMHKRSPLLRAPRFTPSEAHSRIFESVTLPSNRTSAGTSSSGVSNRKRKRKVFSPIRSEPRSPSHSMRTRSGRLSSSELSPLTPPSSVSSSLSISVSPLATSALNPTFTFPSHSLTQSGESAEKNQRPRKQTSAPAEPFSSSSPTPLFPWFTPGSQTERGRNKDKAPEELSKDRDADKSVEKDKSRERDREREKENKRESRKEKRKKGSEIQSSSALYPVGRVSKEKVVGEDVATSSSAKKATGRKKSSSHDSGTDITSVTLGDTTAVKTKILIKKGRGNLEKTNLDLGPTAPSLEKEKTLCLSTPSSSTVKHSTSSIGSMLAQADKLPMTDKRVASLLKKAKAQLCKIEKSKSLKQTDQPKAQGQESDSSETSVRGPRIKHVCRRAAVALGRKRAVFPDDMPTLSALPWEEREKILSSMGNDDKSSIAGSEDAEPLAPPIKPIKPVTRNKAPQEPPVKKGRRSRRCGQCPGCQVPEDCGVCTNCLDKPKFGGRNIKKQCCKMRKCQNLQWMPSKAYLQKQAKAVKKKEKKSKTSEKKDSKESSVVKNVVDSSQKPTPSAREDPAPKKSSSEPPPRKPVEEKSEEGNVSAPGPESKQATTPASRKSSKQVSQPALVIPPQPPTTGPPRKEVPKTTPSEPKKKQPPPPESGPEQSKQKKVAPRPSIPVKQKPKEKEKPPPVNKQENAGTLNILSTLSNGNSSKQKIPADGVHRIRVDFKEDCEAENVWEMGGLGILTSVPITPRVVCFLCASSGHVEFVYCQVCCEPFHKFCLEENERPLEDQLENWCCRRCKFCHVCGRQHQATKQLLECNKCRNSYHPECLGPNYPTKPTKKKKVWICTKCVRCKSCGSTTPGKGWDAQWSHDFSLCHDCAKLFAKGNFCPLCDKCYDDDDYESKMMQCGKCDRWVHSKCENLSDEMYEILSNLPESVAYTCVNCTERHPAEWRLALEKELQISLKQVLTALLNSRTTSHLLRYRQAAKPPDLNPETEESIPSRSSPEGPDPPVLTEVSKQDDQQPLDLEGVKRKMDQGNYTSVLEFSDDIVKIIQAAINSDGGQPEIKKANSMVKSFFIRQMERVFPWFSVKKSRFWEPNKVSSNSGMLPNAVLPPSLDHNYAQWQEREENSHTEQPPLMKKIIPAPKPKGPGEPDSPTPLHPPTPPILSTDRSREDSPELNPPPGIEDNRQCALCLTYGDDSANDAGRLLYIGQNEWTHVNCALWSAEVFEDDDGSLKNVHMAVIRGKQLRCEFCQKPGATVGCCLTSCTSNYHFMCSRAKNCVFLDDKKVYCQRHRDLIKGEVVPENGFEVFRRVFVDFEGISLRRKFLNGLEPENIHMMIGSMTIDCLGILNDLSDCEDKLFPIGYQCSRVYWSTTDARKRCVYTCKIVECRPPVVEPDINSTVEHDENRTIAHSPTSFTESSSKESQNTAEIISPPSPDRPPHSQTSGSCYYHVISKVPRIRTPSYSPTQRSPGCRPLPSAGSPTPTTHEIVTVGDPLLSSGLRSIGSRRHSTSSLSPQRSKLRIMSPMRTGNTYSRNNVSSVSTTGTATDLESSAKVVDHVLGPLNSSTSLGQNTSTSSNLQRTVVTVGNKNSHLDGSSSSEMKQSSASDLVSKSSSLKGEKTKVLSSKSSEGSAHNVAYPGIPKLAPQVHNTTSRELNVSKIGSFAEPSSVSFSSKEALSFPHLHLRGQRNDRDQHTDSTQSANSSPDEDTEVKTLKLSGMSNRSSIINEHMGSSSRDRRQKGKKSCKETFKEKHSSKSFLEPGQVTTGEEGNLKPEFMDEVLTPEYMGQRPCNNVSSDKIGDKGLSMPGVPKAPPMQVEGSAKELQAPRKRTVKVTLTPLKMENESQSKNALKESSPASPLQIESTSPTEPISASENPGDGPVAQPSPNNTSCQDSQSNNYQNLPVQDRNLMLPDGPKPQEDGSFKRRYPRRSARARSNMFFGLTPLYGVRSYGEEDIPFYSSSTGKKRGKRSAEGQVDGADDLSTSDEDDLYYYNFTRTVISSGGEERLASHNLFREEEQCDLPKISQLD
Chain of Menin/Histone-lysine N-methyltransferase MLL (Q03164 2719-3969 partner limits assumed): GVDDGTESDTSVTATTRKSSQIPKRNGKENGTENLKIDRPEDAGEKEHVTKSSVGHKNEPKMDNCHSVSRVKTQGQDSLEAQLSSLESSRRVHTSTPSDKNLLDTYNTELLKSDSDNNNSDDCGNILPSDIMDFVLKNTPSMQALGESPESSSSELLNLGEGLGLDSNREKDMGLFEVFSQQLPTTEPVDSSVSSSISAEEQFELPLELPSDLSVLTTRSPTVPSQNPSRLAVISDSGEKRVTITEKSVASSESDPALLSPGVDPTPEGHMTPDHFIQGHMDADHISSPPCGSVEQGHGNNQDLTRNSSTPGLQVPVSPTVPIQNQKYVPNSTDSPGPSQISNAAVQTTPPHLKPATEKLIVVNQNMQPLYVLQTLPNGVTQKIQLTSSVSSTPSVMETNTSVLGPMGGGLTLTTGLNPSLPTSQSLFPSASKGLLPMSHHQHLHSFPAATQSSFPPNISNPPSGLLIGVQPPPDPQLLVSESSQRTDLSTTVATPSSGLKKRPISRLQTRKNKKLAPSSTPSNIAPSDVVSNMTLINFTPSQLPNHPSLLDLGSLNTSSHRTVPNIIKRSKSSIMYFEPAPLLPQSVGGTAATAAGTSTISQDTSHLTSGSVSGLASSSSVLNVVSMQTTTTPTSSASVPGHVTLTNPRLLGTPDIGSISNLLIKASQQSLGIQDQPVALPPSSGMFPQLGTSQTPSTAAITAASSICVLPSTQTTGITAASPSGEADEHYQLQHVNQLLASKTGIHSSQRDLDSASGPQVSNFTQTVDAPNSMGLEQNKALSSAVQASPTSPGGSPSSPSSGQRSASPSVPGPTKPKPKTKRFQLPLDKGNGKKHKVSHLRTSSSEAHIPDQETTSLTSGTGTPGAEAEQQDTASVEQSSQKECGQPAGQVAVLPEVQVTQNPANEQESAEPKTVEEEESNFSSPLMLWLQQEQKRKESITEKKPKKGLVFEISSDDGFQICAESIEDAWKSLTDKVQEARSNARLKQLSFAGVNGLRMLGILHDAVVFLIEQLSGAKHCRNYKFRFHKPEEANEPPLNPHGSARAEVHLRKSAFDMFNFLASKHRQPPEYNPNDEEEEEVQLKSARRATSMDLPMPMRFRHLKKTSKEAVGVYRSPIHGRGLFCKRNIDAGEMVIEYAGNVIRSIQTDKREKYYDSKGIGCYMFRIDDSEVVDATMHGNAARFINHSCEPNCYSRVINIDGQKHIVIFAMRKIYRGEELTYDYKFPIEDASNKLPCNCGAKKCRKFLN
A short description of data set [10]: Metabolic stability in Sprague-Dawley rat liver microsome assessed as half life measured upto 60 min by UPLC-MS/MS analysis. It is filed as ADME. The settings on record: liver microsomes.
Data set [11] in a line: Metabolic stability in Beagle dog liver assessed as intrinsic clearance measured upto 60 min by UPLC-MS/MS analysis. It is filed as ADME, tissue-based, Canis lupus familiaris. The note with it: read-out: CLH.
Data set [12] can be described thus: Half life in Sprague-Dawley rat at 15 mg/kg, po. The class given is ADME, organism-based. The note with it: in vivo.
A short description of data set [13]: Metabolic stability in Crab eating monkey liver assessed as intrinsic clearance measured upto 60 min by UPLC-MS/MS analysis. It is filed as ADME, tissue-based, Macaca fascicularis. The note with it: cynomolgus monkey, read-out: CLH.
For another data set, the species on record is Homo sapiens. Kind of data set: Inhibition of STE (unknown origin) at 1 uM in presence of ATP at Km concentration by Mobility shift assay relative to control.

In the case of `CN(C)CCOc1ccc2ncnc(NC3CCN(CC4CN(c5ccc(S(=O)(=O)C6CC6)cc5)C4)CC3)c2n1`, the solubility – broadly, how much of the substance goes into solution per volume – in [1] turned out to be 398 µg/mL (≈ 704 µM). Besides, the Activity entry in the data set with MV4-11 [2] is “Dde”. Moreover, the half-life (usually the time in which the quantity being followed falls by half) in data set [3] is 3.38 h; in [4], 3.2 h; in data set [10], 2.75 h; in [12], 15.5 h. Besides, the outcome with MV4-11 [5] was Active. Moreover, the CLint scaled in data set [6] came out at 17.5 mL/min/kg; in [11], 20 mL/min/kg; in [13] it was 31.7 mL/min/kg. The compound further showed a Vdss in [7] of 23 L/kg. The remaining at 1 h in [8] amounted to 79%. Also, the IC50 (commonly the concentration that inhibits the measured activity by half) in data set [9] is 7 nM. In the data set filed under Homo sapiens, the inhibition (as a rule, how much of the control response was suppressed) is less than 25%.
